Test results: patent publication US8367873B2, “Phenyl-substituted bicyclooctane-1,3-dione derivatives” (Bayer Cropscience AG, priority 2008, dated 2013)

Assays:
Format in all cases: in vivo
[1] = tested on: monocotylidonous and dicotylidonous weed and crop plants; assay: Herbicidal pre-emergence action (other test plants); settings: pre-emergence method, 80 g/ha, greenhouse, visual assessment vs untreated controls
Summary of the method: (§1)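 Visual percent effect relative to untreated controls (0% = like control, 100% = dead) assessed three weeks after treatment in the greenhouse. Compounds, as wettable powders in water (600 l/ha, 0.2% wetting agent), were sprayed at different amounts onto covering soil over seeds sown in sandy loam.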

[2] = tested on: Lolium multiflorum; assay: Herbicidal pre-emergence action; settings: pre-emergence method, 80 g/ha, greenhouse, visual assessment vs untreated controls
Summary of the method: as §1

[3] = tested on: Echinocloa crus-galli; assay: Herbicidal pre-emergence action; settings: pre-emergence method, 80 g/ha, greenhouse, visual assessment vs untreated controls
Summary of the method: as §1

[4] = tested on: Alopecurus myosuroides; assay: Herbicidal pre-emergence action; settings: pre-emergence method, 80 g/ha, greenhouse, visual assessment vs untreated controls
Summary of the method: as §1

[5] = tested on: Setaria viridis; assay: Herbicidal pre-emergence action; settings: pre-emergence method, 80 g/ha, greenhouse, visual assessment vs untreated controls
Summary of the method: as §1

[6] = tested on: Lolium multiflorum; assay: Herbicidal post-emergence action; settings: post-emergence method; for herbicidal effect against LOLMU (Lolium multiflorum): 80 g/ha
Summary of the method: (§2)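 Greenhouse plants in sandy loam sprayed at the one-leaf stage, 2-3 weeks after sowing, with WP-formulated compound at varied rates in 600 l/ha water plus 0.2% wetting agent. Damage scored visually after about three weeks as percent effect versus untreated controls (100% = dead).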

[7] = tested on: Echinocloa crus-galli; assay: Herbicidal post-emergence action; settings: post-emergence method; for herbicidal effect against ECHCG (Echinochloa crus-galli): 80 g/ha
Summary of the method: as §2

[8] = tested on: Alopecurus myosuroides; assay: Herbicidal post-emergence action; settings: post-emergence method; for herbicidal effect against ALOMY (Alopecurus myosuroides): 80 g/ha
Summary of the method: as §2

[9] = tested on: Setaria viridis; assay: Herbicidal post-emergence action; settings: post-emergence method; for herbicidal effect against SETVI (Setaria viridis): 80 g/ha
Summary of the method: as §2

[10] = tested on: monocotylidonous and dicotylidonous weed and crop plants; assay: Herbicidal post-emergence action (other test plants); settings: post-emergence method; for herbicidal effect against AVEFA (Avena fatua): 80 g/ha
Summary of the method: as §2

Compound | herbicidal effect AVEFA [1] [%] | herbicidal effect LOLMU [2] [%] | herbicidal effect ECHCG [3] [%] | herbicidal effect ALOMY [4] [%] | herbicidal effect SETVI [5] [%] | pest or weed control at 80 g/ha ([6]; Lolium multiflorum, 504 h, read-out: herbicidal effect against LOLMU (Lolium multiflorum)) [%] | pest or weed control at 80 g/ha ([7]; Echinochloa crus-galli, 504 h, read-out: herbicidal effect against ECHCG (Echinochloa crus-galli)) [%] | pest or weed control at 80 g/ha ([8]; Alopecurus myosuroides, 504 h, read-out: herbicidal effect against ALOMY (Alopecurus myosuroides)) [%] | pest or weed control at 80 g/ha ([9]; Setaria viridis, 504 h, read-out: herbicidal effect against SETVI (Setaria viridis)) [%] | pest or weed control at 80 g/ha ([10]; 504 h, Avena fatua, read-out: herbicidal effect against AVEFA (Avena fatua)) [%] | herbicidal effect against LOLMU (Lolium multiflorum) [6] [%] | herbicidal effect against ECHCG (Echinochloa crus-galli) [7] [%] | herbicidal effect against ALOMY (Alopecurus myosuroides) [8] [%] | herbicidal effect against SETVI (Setaria viridis) [9] [%] | herbicidal effect against AVEFA (Avena fatua) [10] [%]
C=C1C[C@@H]2C(O)=C(c3c(CC)cc(C)cc3CC)C(=O)[C@@H]2C1 (stereo in doubt) [I-a-5, 2-(2,6-diethyl-4-methylphenyl)-3-hydroxy-5-methylidene-4,5,6,6a-tetrahydropentalen-1(3 aH)-one] | 60 | 90 | 80 | 60 | 70 | 90 | 100 | 60 | 100 | 50 |  |  |  |  | 
CCc1cc(C)cc(CC)c1C1=C(O)C2CC3(COC(CC)O3)CC2C1=O (centres unmarked) [I-a-6] | 60 | 100 | 60 | 100 | 60 |  |  |  |  |  | 100 | 100 | 90 | 90 | 70
CCc1cc(C)cc(CC)c1C1=C(O)C2CC3(CC2C1=O)OC(C)CC(C)O3 (centres unmarked) [I-a-15] | 40 | 100 | 70 | 80 | 70 |  |  |  |  |  | 100 | 100 | 90 | 90 | 90
Cc1cc(C)c(C2=C(O)C3CC4(CC3C2=O)OCCO4)c(C)c1 (centres unmarked) [I-a-39] | 70 | 100 | 0 | 80 | 30 |  |  |  |  |  | 100 | 90 | 100 | 90 | 20
Cc1cc(C)c(C2=C(O)C3CC4(CC3C2=O)OCCCCO4)c(C)c1 (centres unmarked) [I-a-40] | 40 | 100 | 80 | 50 | 50 |  |  |  |  |  | 90 | 90 | 80 | 80 | 60
C=C1CC2C(=O)C(c3c(C)cc(C)cc3OC)=C(O)C2C1 (centres unmarked) [I-a-45] | 60 | 80 | 100 | 80 | 100 |  |  |  |  |  | 0 | 80 | 0 | 80 | 0
COc1cc(C)cc(C)c1C1=C(O)C2CC3(CC2C1=O)OCCO3 (centres unmarked) [I-a-48] | 60 | 80 | 40 | 80 | 70 |  |  |  |  |  | 100 | 100 | 80 | 100 | 90
COc1cc(C)cc(C)c1C1=C(O)C2CC3(CC2C1=O)OCC=CCO3 (centres unmarked) [I-a-49] | 90 | 100 | 100 | 100 | 90 |  |  |  |  |  | 100 | 100 | 100 | 100 | 100
COc1cc(C)cc(C)c1C1=C(O)C2CC3(CC2C1=O)OCCCCO3 (centres unmarked) [I-a-50] | 60 | 100 | 80 | 100 | 70 |  |  |  |  |  | 100 | 100 | 100 | 100 | 100
C=C1CC2C(=O)C(c3c(C)cc(C)cc3CC)=C(O)C2C1 (centres unmarked) [I-a-55] | 60 | 50 | 100 | 60 | 90 |  |  |  |  |  | 40 | 100 | 20 | 100 | 0
CCc1cc(C)cc(C)c1C1=C(O)C2CC3(CC2C1=O)OCCO3 (centres unmarked) [I-a-57] | 60 | 100 | 100 | 80 | 90 |  |  |  |  |  | 100 | 100 | 100 | 100 | 100
CCc1cc(C)cc(C)c1C1=C(O)C2CC3(CC2C1=O)OCCCCO3 (centres unmarked) [I-a-61] | 60 | 100 | 80 | 70 | 60 |  |  |  |  |  | 100 | 100 | 90 | 90 | 90
CCc1cc(C)cc(C)c1C1=C(O)C2CC3(COC(C)(C)O3)CC2C1=O (centres unmarked) [I-a-62] | 40 | 100 | 100 | 100 | 90 |  |  |  |  |  | 100 | 100 | 100 | 90 | 80
CCc1cc(C)cc(CC)c1C1=C(O)C2CC(=NOC(C)(C)C)CC2C1=O (centres unmarked) [I-a-68] | 40 | 80 | 50 | 40 | 0 |  |  |  |  |  | 100 | 100 | 90 | 40 | 0
